Patent US9499550B2 (BRISTOL-MYERS SQUIBB COMPANY, priority 2012, dated 2016)
Where two headings read alike, the source gives them in different places.

Legend:
[1] = test system: HCV genotype 1a (H77 strain) replicon in HUH-7 cells; experiment: HCV replicon luciferase reporter assay, genotype 1a; type: cell-based; details: Hepatitis C virus, Huh-7, 72 h, 3 days incubation
Outline: (§1)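 Replicon inhibition for both genotypes was measured as Renilla luciferase signal (EnduRen, 7.5 μM final, 2 h) after 3-day, 37° C exposure of replicon-bearing HUH-7 cells in 4% FCS DMEM, 0.5% DMSO. The 1b construct carries S1179I; the 1a H77 construct carries P1496L and S2204I. Twenty-point, 3-fold dilutions were fitted four-parametrically for EC50, and CC50 was taken from multiplexed Cell Titer-Blue.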

[2] = test system: HCV genotype 1b (Con1) replicon in HUH-7 cells; experiment: HCV replicon luciferase reporter assay, genotype 1b; type: cell-based; details: Hepatitis C virus, Huh-7, 72 h, 3 days incubation
Outline: as §1

[3] = HCV genotype 1a replicon luciferase, read-out: LE_1a (EC50, range)
[4] = HCV genotype 1b replicon luciferase, read-out: LE_1b (EC50, range)
[5] = HCV genotype 1a replicon luciferase assay, range class, read-out: LE_1a (EC50, range)
[6] = HCV genotype 1b replicon luciferase assay, range class, read-out: LE_1b (EC50, range)
[7] = GETYPE1A, HCV genotype 1a replicon luciferase, read-out: LE_1a (EC50, range)
[8] = GETYPE1B, HCV genotype 1b replicon luciferase, read-out: LE_1b (EC50, range)

Structure (SMILES) | EC50 [1, 3] [nM] | EC50 [2, 4] [nM] | EC50 [1, 5] [nM] | EC50 [2, 6] [nM] | other results
CCOc1ccc2nc(C(F)(F)F)c(O[C@@H]3C[C@H]4C(=O)N[C@]5(C(=O)NS(=O)(=O)C6(C)CC6)C[C@H]5/C=C\CC[C@@H](C)C[C@@H](C)[C@H](NC(=O)OC(C)(C)C)C(=O)N4C3)nc2c1 [Compound 4346, tert-butyl ((2R,6S,7R,9R,13aS,14aR,16aS,Z)-2-((7-ethoxy-3-(trifluoromethyl)quinoxalin-2-yl)oxy)-7,9-dimethyl-14a-(((1-methylcyclopropyl)sulfonyl)carbamoyl)-5,16-dioxo-1,2,3,5,6,7,8,9,10,11,13a,14,14a,15,16,16a-hexadecahydrocyclopropa[e]pyrrolo[1,2-a][1,4]diazacyclopentadecin-6-yl)carbamate] | 0.51 to 1 | 0.1 to 0.5 |  |  | 
CC(C)Oc1ccc2c(O[C@@H]3C[C@H]4C(=O)N[C@]5(C(=O)NS(=O)(=O)C6(C)CC6)C[C@H]5/C=C\CC[C@H](C)C[C@@H](C)[C@H](NC(=O)O[C@@H]5C[C@@H]6C[C@@H]6C5)C(=O)N4C3)nccc2c1 [Compound 5162, (1R,3r,5S)-bicyclo[3.1.0]hexan-3-yl((2R,6S,7R,9S,13aS,14aR,16aS,Z)-2-((6-isopropoxyisoquinolin-1-yl)oxy)-7,9-dimethyl-14a-(((1-methylcyclopropyl)sulfonyl)carbamoyl)-5,16-dioxo-1,2,3,5,6,7,8,9,10,11,13a,14,14a,15,16,16a-hexadecahydrocyclopropa[e]pyrrolo[1,2-a][1,4]diazacyclopentadecin-6-yl)carbamate] | 4.82 to 103 | < 5.46 |  |  | 
COc1cc(F)cc2c(O[C@@H]3C[C@H]4C(=O)N[C@]5(C(=O)NS(=O)(=O)C6(CF)CC6)C[C@H]5/C=C\CC[C@@H](C)C[C@@H](C)[C@H](NC(=O)O[C@H](C)C(F)(F)F)C(=O)N4C3)nccc12 [Compound 3178, (R)-1,1,1-trifluoropropan-2-yl ((2R,6S,7R,9R,13aS,14aR,16aS,Z)-2-((7-fluoro-5-methoxyisoquinolin-1-yl)oxy)-14a-(((1-(fluoromethyl)cyclopropyl)sulfonyl)carbamoyl)-7,9-dimethyl-5,16-dioxo-1,2,3,5,6,7,8,9,10,11,13a,14,14a,15,16,16a-hexadecahydrocyclopropa[e]pyrrolo[1,2-a][1,4]diazacyclopentadecin-6-yl)carbamate] |  |  | < 5.46 | < 5.46 | EC50 ([1]; HCV genotype 1a replicon luciferase assay, read-out: LE_1a (EC50)): 3.16 nM; EC50 ([2]; HCV genotype 1b replicon luciferase assay, read-out: LE_1b (EC50)): 0.61 nM
CC[C@@H]1C[C@H](C)CC/C=C\[C@@H]2C[C@@]2(C(=O)NS(=O)(=O)C2(C)CC2)NC(=O)[C@@H]2C[C@@H](Oc3ncc(F)c4cc(OC)ccc34)CN2C(=O)[C@H]1NC(=O)OC(C)(C)C(F)(F)F [Compound 4379] |  |  |  |  | EC50 [1, 7]: 1.01 to 5 nM; EC50 [2, 8]: 0.51 to 1 nM
CCOc1nnc(O[C@@H]2C[C@H]3C(=O)N[C@]4(C(=O)NS(=O)(=O)C5(C)CC5)C[C@H]4/C=C\CC[C@H](C)C[C@@H](C)[C@H](NC(=O)OC(C)(C)C)C(=O)N3C2)c2ccccc12 [Compound 5028, tert-butyl ((2R,6S,7R,9S,13aS,14aR,16aS,Z)-2-((4-ethoxyphthalazine-1-yl)oxy)-7,9-dimethyl-14a-(((1-methylcyclopropyl)sulfonyl)carbamoyl)-5,16-dioxo-1,2,3,5,6,7,8,9,10,11,13a,14,14a,15,16,16a-hexadecahydrocyclopropa[e]pyrrolo[1,2-a][1,4]diazacyclopentadecin-6-yl)carbamate] | 4.82 to 103 | < 5.46 |  |  | EC50 ([1]; HCV genotype 1a replicon luciferase, read-out: LE_1a (EC50)): 6.28 nM; EC50 ([2]; HCV genotype 1b replicon luciferase, read-out: LE_1b (EC50)): 2.96 nM
CCn1nc(O[C@@H]2C[C@H]3C(=O)N[C@]4(C(=O)NS(=O)(=O)C5(C)CC5)C[C@H]4/C=C\CC[C@H](C)C[C@@H](C)[C@H](NC(=O)OC(C)(C)C)C(=O)N3C2)c2ccccc2c1=O [Compound 5064, tert-butyl ((2R,6S,7R,9S,13aS,14aR,16aS,Z)-2-((3-ethyl-4-oxo-3,4-dihydrophthalazin-1-yl)oxy)-7,9-dimethyl-14a-(((1-methylcyclopropyl)sulfonyl)carbamoyl)-5,16-dioxo-1,2,3,5,6,7,8,9,10,11,13a,14,14a,15,16,16a-hexadecahydrocyclopropa[e]pyrrolo[1,2-a][1,4]diazacyclopentadecin-6-yl)carbamate] | > 87.4 | 4.82 to 103 |  |  | 
CC[C@@H]1C[C@H](C)CC/C=C\[C@@H]2C[C@@]2(C(=O)NS(=O)(=O)C2(C)CC2)NC(=O)[C@@H]2C[C@@H](Oc3nccc4c(OC)cccc34)CN2C(=O)[C@H]1NC(=O)NC(C)(C)C [Compound 3034, (2R,6S,7R,9R,13aS,14aR,16aS,Z)-6-(3-(tert-butyl)ureido)-7-ethyl-2-((5-methoxyisoquinolin-1-yl)oxy)-9-methyl-N-((1-methylcyclopropyl)sulfonyl)-5,16-dioxo-1,2,3,5,6,7,8,9,10,11,13a,14,14a,15,16,16a-hexadecahydrocyclopropa[e]pyrrolo[1,2-a][1,4]diazacyclopentadecine-14a-carboxamide] |  |  | < 5.46 | < 5.46 | 
COc1ccc2c(Cl)ncc(O[C@@H]3C[C@H]4C(=O)N[C@]5(C(=O)NS(=O)(=O)C6(C)CC6)C[C@H]5/C=C\CC[C@@H](C)C[C@@H](C)[C@H](NC(=O)OC(C)(C)C)C(=O)N4C3)c2c1 [Compound 4375, tert-butyl ((2R,6S,7R,9R,13aS,14aR,16aS,Z)-2-((1-chloro-6-methoxyisoquinolin-4-yl)oxy)-7,9-dimethyl-14a-(((1-methylcyclopropyl)sulfonyl)carbamoyl)-5,16-dioxo-1,2,3,5,6,7,8,9,10,11,13a,14,14a,15,16,16a-hexadecahydrocyclopropa[e]pyrrolo[1,2-a][1,4]diazacyclopentadecin-6-yl)carbamate] | 1.01 to 5 | 0.51 to 1 |  |  | 
C[C@@H]1CC/C=C\[C@@H]2C[C@@]2(C(=O)NS(=O)(=O)C2(C)CC2)NC(=O)[C@@H]2C[C@@H](Oc3ncc(OCC(F)F)c4ccccc34)CN2C(=O)[C@@H](NC(=O)O[C@H](C)C(F)(F)F)[C@H](C)C1 [Compound 1036, (R)-1,1,1-trifluoropropan-2-yl ((2R,6S,7R,9R,13aS,14aR,16aS,Z)-2-((4-(2,2-difluoroethoxyl)isoquinolin-1-yl)oxy)-7,9-dimethyl-14a-(((1-methylcyclopropyl)sulfonyl)carbamoyl)-5,16-dioxo-1,2,3,5,6,7,8,9,10,11,13a,14,14a,15,16,16a-hexadecahydrocyclopropa[e]pyrrolo[1,2-a][1,4]diazacyclopentadecin-6-yl)carbamate] |  |  | < 5.46 | < 5.46 | 
CC[C@@H]1C[C@H](C)CC/C=C\[C@@H]2C[C@@]2(C(=O)NS(=O)(=O)C2(C)CC2)NC(=O)[C@@H]2C[C@@H](Oc3nc4c(c5ccccc35)CCCO4)CN2C(=O)[C@H]1NC(=O)OC(C)(C)C [Compound 6064, tert-butyl ((2R,6S,7R,9R,13aS,14aR,16aS,Z)-2-((2,3-dihydro-1H-pyrano[2,3-c]isoquinolin-6-yl)oxy)-7-ethyl-9-methyl-14a-(((1-methylcyclopropyl)sulfonyl)carbamoyl)-5,16-dioxo-1,2,3,5,6,7,8,9,10,11,13a,14,14a,15,16,16a-hexadecahydrocyclopropa[e]pyrrolo[1,2-a][1,4]diazacyclopentadecin-6-yl)carbamate] | 0.51 to 1 | 0.1 to 0.5 |  |  | 
COc1ccc2c(O[C@@H]3C[C@H]4C(=O)N[C@]5(C(=O)NS(=O)(=O)C6CC6)C[C@H]5/C=C\CC[C@H](C)C[C@@H](C)[C@H](NC(=O)OC(C)(C)C(F)(F)F)C(=O)N4C3)nc(-c3ccc(N4CCOCC4)cc3)cc2c1 [Compound 5196, 1,1,1-trifluoro-2-methylpropan-2-yl((2R,6S,7R,9S,13aS,14aR,16aS,Z)-14a-((cyclopropylsulfonyl)carbamoyl)-2-((6-methoxy-3-(4-morpholinophenyl)isoquinolin-1-yl)oxy)-7,9-dimethyl-5,16-dioxo-1,2,3,5,6,7,8,9,10,11,13a,14,14a,15,16,16a-hexadecahydrocyclopropa[e]pyrrolo[1,2-a][1,4]diazacyclopentadecin-6-yl)carbamate] | < 5.46 | < 5.46 |  |  | 
COc1cc2ccccc2c(O[C@@H]2C[C@H]3C(=O)N[C@]4(C(=O)NS(=O)(=O)C5(CF)CC5)C[C@H]4/C=C\CC[C@@H](C)C[C@@H](C)[C@H](NC(=O)OC(C)(C)C(F)(F)F)C(=O)N3C2)n1 [Compound 6016] |  |  |  |  | EC50 [1, 7]: < 5.46 nM; EC50 [2, 8]: < 5.46 nM
COc1ccc2c(O[C@@H]3C[C@H]4C(=O)N[C@]5(C(=O)NS(=O)(=O)C6(C)CC6)C[C@H]5/C=C\CC[C@@H](C)C[C@@H](C)[C@H](NC(=O)OC(C)(C)C(F)(F)F)C(=O)N4C3)nc(-c3ccc(F)cc3)cc2c1 [Compound 3080, 1,1,1-trifluoro-2-methylpropan-2-yl((2R,6S,7R,9R,13aS,14aR,16aS,Z)-2-((3-(4-fluorophenyl)-6-methoxyisoquinolin-1-yl)oxy)-7,9-dimethyl-14a-(((1-methylcyclopropyl)sulfonyl)carbamoyl)-5,16-dioxo-1,2,3,5,6,7,8,9,10,11,13a,14,14a,15,16,16a-hexadecahydrocyclopropa[e]pyrrolo[1,2-a][1,4]diazacyclopentadecin-6-yl)carbamate] |  |  | < 5.46 | < 5.46 | 
